Measured values taken from patent US8362000B2, “Azetidinyl diamides as monoacylglycerol lipase inhibitors” (Janssen Pharmaceutica NV, priority 2009, dated 2013).
Where a chain is given by its changes, count along the chain named. Where two headings read alike, the source gives them in different places.

Columns and labels:
mutant MGL = biological target: T1, mutant MGL (Homo sapiens, UniProt Q99685, L169S/L176S); experiment: MGL ThermoFluor assay - mutant; format: binding
T1 sequence (Q99685 1-303 L169S/L176S): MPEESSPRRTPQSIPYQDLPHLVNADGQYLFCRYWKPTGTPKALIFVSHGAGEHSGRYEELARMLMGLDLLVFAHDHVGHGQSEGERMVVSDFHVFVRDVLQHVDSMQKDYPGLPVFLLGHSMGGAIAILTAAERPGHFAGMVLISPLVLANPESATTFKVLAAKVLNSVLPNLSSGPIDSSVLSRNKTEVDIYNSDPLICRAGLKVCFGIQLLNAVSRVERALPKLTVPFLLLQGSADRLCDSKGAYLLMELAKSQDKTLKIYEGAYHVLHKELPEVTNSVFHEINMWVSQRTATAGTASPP

[1] = biological target: T2, purified wild type MGL (wt-MGLL 6H-11-313) (Homo sapiens, UniProt Q99685)
T2 sequence (Q99685 1-303): T1 sequence (Q99685 1-303 L169S/L176S) with S169L, S176L

[2] = ThermoFluor, compound concentration measured by qNMR, read-out: MGL mutant ThermoFluor qKd (using qNMR conc.)
[3] = ThermoFluor thermal stability binding assay, read-out: MGL mutant ThermoFluor Kd
[4] = ThermoFluor concentration-response, read-out: MGL mutant ThermoFluor Kd
[5] = ThermoFluor, compound concentration measured by qNMR, read-out: MGL mutant ThermoFluor qKd (μM) (using qNMR conc.)
[6] = compound concentration measured by qNMR, read-out: MGL mutant ThermoFluor qKd (using qNMR conc.)

SMILES	IC50 [1] [nM]	also measured
O=C(c1ccc2c(ccn2-c2ccccn2)c1)N1CC(N2CCN(C(=O)c3ccc[nH]3)CC2)C1 [Cpd 1189, 1-Pyridin-2-yl-5-({3-[4-(1H-pyrrol-2-ylcarbonyl)piperazin-1-yl]azetidin-1-yl}carbonyl)-1H-indole]	97	Kd (mutant MGL; [2]): 0.153 µM
O=C(c1nccs1)N1CCN(C2CN(C(=O)c3cccc4oc(-c5cccc(Cl)c5)nc34)C2)CC1 [Cpd 1191]	105	Kd (mutant MGL; [3]): 0.011 µM
O=C(c1ccc2c(ccn2-c2cccnc2)c1)N1CC(N2CCN(C(=O)c3nccs3)CC2)C1 [Cpd 1192, 1-Pyridin-3-yl-5-({3-[4-(1,3-thiazol-2-ylcarbonyl)piperazin-1-yl]azetidin-1-yl}carbonyl)-1H-indole]	109	Kd (mutant MGL; [2]): 0.035 µM
O=C(c1nccs1)N1CCN(C2CN(C(=O)c3cccc4oc(-c5ccccc5F)nc34)C2)CC1 [Cpd 1193]	116	Kd (mutant MGL; [3]): 0.017 µM
O=C(c1ccc2[nH]c(-c3ccccc3)nc2c1)N1CC(N2CCN(C(=O)c3nccs3)CC2)C1 [Cpd 1194]	118	Kd (mutant MGL; [4]): 0.1 µM
Cn1nc(-c2ccc(F)cc2)c2cc(C(=O)N3CC(N4CCN(C(=O)c5nccs5)CC4)C3)ccc21 [Cpd 1195]	120	Kd (mutant MGL; [4]): 0.023 µM
COc1cncc(-c2ccc3cc(C(=O)N4CC(N5CCN(C(=O)c6nccs6)CC5)C4)[nH]c3c2)c1 [Cpd 1196]	123	Kd (mutant MGL; [5]): 0.37 µM
Cc1ccnc(-n2ccc3cc(C(=O)N4CC(N5CCN(C(=O)c6cscn6)CC5)C4)ccc32)c1 [Cpd 1197, 1-(4-Methylpyridin-2-yl)-5-({3-[4-(1,3-thiazol-4-ylcarbonyl)piperazin-1-yl]azetidin-1-yl}carbonyl)-1H-indole]	133	Kd (mutant MGL; [2]): 0.065 µM
Cc1c(C(=O)N2CC(N3CCN(C(=O)c4cscn4)CC3)C2)nn(-c2ccc(Cl)cc2Cl)c1-c1ccc(Cl)cc1 [Cpd 1198]	143	Kd (mutant MGL; [3]): 0.03 µM
Cc1nc(-c2ccccc2F)sc1C(=O)N1CC(N2CCN(C(=O)c3nccs3)CC2)C1 [Cpd 1202]	152	Kd (mutant MGL; [4]): 0.065 µM
Cc1nn(-c2ccc(F)cc2)c2ncc(C(=O)N3CC(N4CCN(C(=O)c5nccs5)CC4)C3)cc12 [Cpd 1203]	153	Kd (mutant MGL; [2]): 0.015 µM
O=C(c1cc2ccc(-c3ccc(F)cc3)cc2[nH]1)N1CC(N2CCN(C(=O)c3nccs3)CC2)C1 [Cpd 1204]	166	Kd (mutant MGL; [5]): 0.249 µM
Cc1c(C(=O)N2CC(N3CCN(C(=O)c4nccs4)CC3)C2)[nH]c2ccc(-c3ccnn3C)cc12 [Cpd 1205]	168	Kd (mutant MGL; [5]): 0.008 µM
Cc1nc2cc(C(=O)N3CC(N4CCN(C(=O)c5nccs5)CC4)C3)ccc2n1-c1ccc(F)c(F)c1 [Cpd 1206]	171	Kd (mutant MGL; [6]): 0.018 µM
O=C(c1ccc2c(c1)ncn2-c1ccccc1)N1CC(N2CCN(C(=O)c3nccs3)CC2)C1 [Cpd 1207]	179	Kd (mutant MGL; [4]): 0.014 µM
O=C(c1cc2cc(-c3ccccc3)cnc2o1)N1CC(N2CCN(C(=O)c3nccs3)CC2)C1 [Cpd 1209]	193	Kd (mutant MGL; [5]): 0.942 µM
O=C(c1ccc2nc(-c3nccs3)sc2c1)N1CC(N2CCN(C(=O)c3nccs3)CC2)C1 [Cpd 1210]	195	Kd (mutant MGL; [5]): 0.097 µM
Cc1noc(C)c1-c1ccc2cc(C(=O)N3CC(N4CCN(C(=O)c5nccs5)CC4)C3)[nH]c2c1 [Cpd 1211]	200	Kd (mutant MGL; [5]): 0.106 µM
O=C(c1cc2cc(-c3ccc(F)cc3)cnc2o1)N1CC(N2CCN(C(=O)c3nccs3)CC2)C1 [Cpd 1213]	206	Kd (mutant MGL; [5]): 0.765 µM
Cc1nc2cc(C(=O)N3CC(N4CCN(C(=O)c5nccs5)CC4)C3)ccc2n1-c1ccc(C(F)(F)F)cc1 [Cpd 1215]	216	Kd (mutant MGL; [6]): 0.006 µM
Cc1nccc(-n2ccc3cc(C(=O)N4CC(N5CCN(C(=O)c6nccs6)CC5)C4)ccc32)n1 [Cpd 1216, 1-(2-Methylpyrimidin-4-yl)-5-({3-[4-(1,3-thiazol-2-ylcarbonyl)piperazin-1-yl]azetidin-1-yl}carbonyl)-1H-indole]	216	Kd (mutant MGL; [2]): 0.022 µM
O=C(c1nccs1)N1CCN(C2CN(C(=O)c3cccc4oc(-c5ccc(Cl)cc5)nc34)C2)CC1 [Cpd 1220]	255	Kd (mutant MGL; [3]): 0.015 µM
O=C(c1ccc(-c2ccccc2)cc1)N1CC(N2CCN(C(=O)c3cocn3)CC2)C1 [Cpd 1222]	266	Kd (mutant MGL; [3]): 0.068 µM
O=C(c1ccc(-n2cnc3ccccc32)cc1)N1CC(N2CCN(C(=O)c3nccs3)CC2)C1 [Cpd 1223]	267	Kd (mutant MGL; [4]): 0.111 µM

SMILES	IC50 [1] [nM]	also measured
O=C(c1nccs1)N1CCN(C2CN(C(=O)c3cn(-c4ccc(F)cc4)c4ccccc34)C2)CC1 [Cpd 1224]	270	Kd (mutant MGL; [5]): 0.189 µM
Cc1nn(-c2ccc(Cl)c(Cl)c2)c(C)c1C(=O)N1CC(N2CCN(C(=O)c3nccs3)CC2)C1 [Cpd 1225]	273	Kd (mutant MGL; [4]): 0.042 µM
O=C(c1nccs1)N1CCN(C2CN(C(=O)c3cn(-c4cccc(F)c4)c4ccccc34)C2)CC1 [Cpd 1226]	282	Kd (mutant MGL; [5]): 0.193 µM
Cc1nc2cc(C(=O)N3CC(N4CCN(C(=O)c5nccs5)CC4)C3)ccc2n1-c1ccc(F)cc1 [Cpd 1227]	287	Kd (mutant MGL; [6]): 0.011 µM
O=C(c1cccc(-c2cccc(F)c2)c1)N1CC(N2CCN(C(=O)c3cscn3)CC2)C1 [Cpd 1228]	295	Kd (mutant MGL; [4]): 1.42 µM
Cc1nc2cc(C(=O)N3CC(N4CCN(C(=O)c5nccs5)CC4)C3)ccc2n1-c1ccccc1 [Cpd 1229]	306	Kd (mutant MGL; [6]): 0.011 µM
Cc1cn(-c2ccc(F)cc2)c2ccc(C(=O)N3CCN(C4CN(C(=O)c5cscn5)C4)CC3)cc12 [Cpd 1230, 1-(4-Fluorophenyl)-3-methyl-5-({4-[1-(1,3-thiazol-4-ylcarbonyl)azetidin-3-yl]piperazin-1-yl}carbonyl)-1H-indole]	307	Kd (mutant MGL; [4]): 0.009 µM
O=C(c1ccc2c(c1)ncn2-c1ccc(C(F)(F)F)cc1)N1CC(N2CCN(C(=O)c3cscn3)CC2)C1 [Cpd 1231]	316	Kd (mutant MGL; [6]): 0.131 µM
O=C(c1ccc(-c2ccccc2)cc1)N1CC(N2CCN(C(=O)C3CCC3)CC2)C1 [Cpd 1232]	326	Kd (mutant MGL; [3]): 0.345 µM
O=C(c1ccc2nc(-c3ccccc3)oc2c1)N1CCN(C2CN(C(=O)c3nccs3)C2)CC1 [Cpd 1233]	343	Kd (mutant MGL; [3]): 0.19 µM
O=C(c1cscn1)N1CCN(C2CN(C(=O)c3cccc4nc(-c5ccccc5)oc34)C2)CC1 [Cpd 1237]	393	Kd (mutant MGL; [3]): 0.064 µM
O=C(c1cscn1)N1CCN(C2CN(C(=O)c3cccc4nc(-c5cccc(Cl)c5)oc34)C2)CC1 [Cpd 1238]	437	Kd (mutant MGL; [3]): 0.125 µM
O=C(c1cccc(-c2ccc(F)cc2F)c1)N1CC(N2CCN(C(=O)c3cscn3)CC2)C1 [Cpd 1239]	449	Kd (mutant MGL; [4]): 3.04 µM
O=C(c1cscn1)N1CCN(C2CN(C(=O)c3cccc(-c4ccccc4)c3F)C2)CC1 [Cpd 1240]	459	Kd (mutant MGL; [4]): 2.49 µM
O=C(c1ccc(-c2ccccc2)cc1)N1CCN(C2CN(C(=O)c3cccc(F)c3)C2)CC1 [Cpd 1242, 1-(Biphenyl-4-ylcarbonyl)-4-{1-[(3-fluorophenyl)carbonyl]azetidin-3-yl}piperazine]	461	Kd (mutant MGL; [4]): 0.197 µM
O=C(c1ccc(-c2cccc(C(F)(F)F)c2)cc1)N1CCN(C2CN(C(=O)c3cc[nH]c3)C2)CC1 [Cpd 1243, 1-[1-(1H-Pyrrol-3-ylcarbonyl)azetidin-3-yl]-4-{[3′-(trifluoromethyl)biphenyl-4-yl]carbonyl}piperazine]	463	Kd (mutant MGL; [4]): 0.033 µM
O=C(c1cc2ccc(-c3cccnc3F)cc2[nH]1)N1CC(N2CCN(C(=O)c3nccs3)CC2)C1 [Cpd 1244]	463	Kd (mutant MGL; [5]): 0.589 µM
O=C(c1ccc(-c2ccccc2)cc1)N1CCN(C2CN(C(=O)c3cscn3)C2)CC1 [Cpd 1246, 1-(Biphenyl-4-ylcarbonyl)-4-[1-(1,3-thiazol-4-ylcarbonyl)azetidin-3-yl]piperazine]	506	Kd (mutant MGL; [4]): 0.042 µM
O=C(c1ccc2c(ccn2-c2cccnc2)c1)N1CC(N2CCN(C(=O)c3ccc[nH]3)CC2)C1 [Cpd 1247, 1-Pyridin-3-yl-5-({3-[4-(1H-pyrrol-2-ylcarbonyl)piperazin-1-yl]azetidin-1-yl}carbonyl)-1H-indole]	539	Kd (mutant MGL; [2]): 0.65 µM
O=C(c1ccc(-n2ccc(C(F)(F)F)n2)cc1)N1CC(N2CCN(C(=O)c3nccs3)CC2)C1 [Cpd 1249]	605	Kd (mutant MGL; [4]): 0.241 µM
O=C(c1nccs1)N1CCN(C2CN(C(=O)c3cccc4oc(-c5cccnc5)nc34)C2)CC1 [Cpd 1251]	684	Kd (mutant MGL; [3]): 0.146 µM
O=C(c1nccs1)N1CCN(C2CN(C(=O)c3cccc4nc(-c5ccco5)[nH]c34)C2)CC1 [Cpd 1252]	706	Kd (mutant MGL; [3]): 0.386 µM
O=C(c1ccc(-c2ccccc2)cc1)N1CC(N2CCN(C(=O)C3CC3(F)F)CC2)C1 (stereo not shown) [Cpd 1256]	808	Kd (mutant MGL; [3]): 0.393 µM
